The results in this text go back to patent publication US12428396B2, “Fused pyridine ring derivative, preparation method therefor, and pharmaceutical use thereof” (priority 2019, dated 2025).

Data set [1] can be described thus: Beagle pharmacokinetic study (ig/sc/iv, plasma LC/MS/MS). Format: in vivo, beagles. The conditions noted are these: for AUC(0-t) / half-life / Cmax: dog, plasma; for AUC(0-t): read-out: Area under curve AUC0-72; for half-life: read-out: Half life T½ (converted); for Cmax: read-out: Plasma concentration Cmax. Here is the method:
Taking beagles as test animals, and the drug concentrations in dog plasma at various times after intragastric administration (ig)/subcutaneous injection (sc)/intravenous injection (iv) administration of the compound of Example 1-1 and Positive Control Example 1 were measured by using LC/MS/MS method. The pharmacokinetic performance in beagles of the compounds of the present disclosure was studied and the pharmacokinetic profile thereof was evaluated.
18 non-naïve beagles (999M-004, medicilon) with 7-12 kg, every 3 of which were in one group.
The intragastric administration group: a certain amount of the compounds was weighed, ethanol with a volume of 5% of the final volume, 20% PG, 45% PEG300 and 30% deionized water were added (the pH was adjusted to be about 2 with 0.01 N HCl), and the reaction mixture was subjected to ultrasonic stirring for uniform mixing to give an administration solution at a concentration of 0.8 mg/mL.
The subcutaneous injection administration group: a certain amount of the compounds was weighed, 2% aqueous poloxamer 188 solution with a proper volume was added, and the reaction mixture was subjected to ultrasonic stirring for uniform mixing to give a suspension administration solution at a concentration of 200 mg/mL.
The intravenous administration group: a certain amount of the compounds was weighed, 5% volume of DMSO, 30% PG, 30% PEG400 and 35% volume of normal saline were added, and the reaction mixture was subjected to vortex ultrasonic stirring for uniform mixing to give an administration solution at a concentration of 0.5 mg/mL.
Beagles were intragastrically administered with the compounds after fasting overnight, at a dose of 4.0 mg/kg and a volume of 5.0 mL/kg.
Beagles were subcutaneously injected with the compounds after fasting overnight, at a dose of 6.0 mg/kg and a volume of 0.03 mL/kg.
Beagles were intravenously injected with the compounds after fasting overnight, at a dose of 1.0 mg/kg and a volume of 2 mL/kg.
Beagles were intragastrically administered with the compound of Example 1-1/Positive Control Example 1, and 1 mL of blood was collected from the orbit before administration and at 0.25 h, 0.5 h, 1.0 h, 2.0 h, 4.0 h, 6.0 h, 8.0 h, 12.0 h, 24 h, 32 h, 48 h, 56 h and 72 h after administration, respectively, and placed in EDTA-K2 anticoagulant blood collection tubes, plasma was centrifuged (centrifugal force: 2200 g, centrifugation time: 10 min, 2-8° C.), and stored at −80° C., and food intake was resumed 3 h after administration.
The compound of Example 1-1/Positive Control Example 1 was subcutaneously injected to beagles, and 1 mL of blood was collected before administration and at 1.0 h, 3.0 h, 8.0 h, 24 h, 48 h, 72 h, 96 h, 168 h, 336 h, 432 h and 504 h after administration, respectively, and placed in EDTA-K2 anticoagulant blood collection tubes, plasma was centrifuged (centrifugal force: 2200 g, centrifugation time: 10 min, 2-8° C.), and stored at −80° C., and food intake was resumed 3 h after administration.
The content of the compound to be tested in the plasma of beagles was determined after the intragastric administration of the compounds at different concentrations: 20 μL of the plasma in beagles at each time after administration was taken, 200 μL of methanol containing internal standard (100 ng/mL) was added, the reaction mixture was subjected to vortex mixing for 1 min, and centrifuged for 7 min (centrifugal force: 18000 g), and 1 μL of the supernatant was taken from the plasma sample for LC/MS/MS analysis. […]

Data set [2] is described as follows: Monkey pharmacokinetic study (iv, plasma LC/MS/MS). The format is in vivo, cynomolgus monkeys. To be noted: cynomolgus monkey, intravenous injection, 1 mg/kg. On the procedure: Taking cynomolgus monkeys as test animals and the drug concentrations in monkey plasma at various times after intravenous injection (iv) of the compounds of Example 1-1 and Positive Control Example 1 were measured by using LC/MS/MS method. The pharmacokinetic performance in cynomolgus monkeys of the compounds of the present disclosure was studied and the pharmacokinetic profile thereof was evaluated.
6 non-naïve cynomolgus monkeys (999M-004, medicilon) with 2-5 kg, every 3 of which were in one group.
A certain amount of the compounds was weighed, 5% volume of DMSO, 30% PG, 30% PEG400 and 35% volume of normal saline were added, and the reaction mixture was subjected to vortex ultrasonic stirring for uniform mixing to give a clean administration solution at a concentration of 0.5 mg/mL.
Monkeys were intravenously injected with the compounds after fasting overnight, at a dose of 1.0 mg/kg and a volume of 2 mL/kg.
The compound of Example 1-1/Positive Control Example 1 was intravenously injected to monkeys, and 1 mL of blood was collected through femoral vein before administration and at 5 min, 0.25 h, 0.5 h, 1.0 h, 2.0 h, 4.0 h, 8.0 h, 12.0 h, 24 h, 32 h, 48 h, 56 h and 72 h after administration, respectively, and placed in EDTA-K2 anticoagulant blood collection tubes, plasma was centrifuged (centrifugal force: 2200 g, centrifugal time: 10 min, 2-8° C.), and stored at −80° C., and food intake was resumed 3 h after administration.

[3] abbreviates: po, intragastric administration, 4 mg/kg.
Where [4] appears, read: sc, subcutaneous injection, 6 mg/kg.

Like-named read-outs stand apart in the source and are kept apart here.

Take `CC(C)(C#Cc1ccc(-c2ccc(Cl)c3c(NS(C)(=O)=O)nn(CC(F)(F)F)c23)c([C@H](Cc2cc(F)cc(F)c2)NC(=O)Cn2nc(C(F)(F)F)c3c2C(F)(F)[C@@H]2C[C@H]32)n1)S(C)(=O)=O` [Positive Control Example 1, N—((S)-1-(3-(4-chloro-3-(methylsulfonamido)-1-(2,2,2-trifluoroethyl)-1H-indazol-7-yl)-6-(3-methyl-3-(methylsulfonyl)but-1-yn-1-yl)pyridin-2-yl)-2-(3,5-difluorophenyl)ethyl)-2-((3bS,4aR)-5,5-difluoro-3-(trifluoromethyl)-3b,4,4a,5-tetrahydro-1H-cyclopropa[3,4]cyclopenta[1,2-c]pyrazol-1-yl)acetamide, reference compound]: the AUC(0-t) is 14.7 µg·h/mL in data set [1] (intravenous injection, 1 mg/kg); 11.2 µg·h/mL in data set [1] (setting [3]); 17.7 µg·h/mL in data set [1] (setting [4]); 2.13 µg·h/mL in data set [2] (plasma, read-out: Area under curve AUC0-72). Also, the half-life in data set [1] (intravenous injection, 1 mg/kg) was 13.7 h; in data set [1] (setting [3]), 23 h. In addition, the Cmax turned out to be 1.11 µg/mL in data set [1] (intravenous injection, 1 mg/kg); 0.415 µg/mL in data set [1] (setting [3]); 0.0546 µg/mL in data set [1] (setting [4]). The “Clearance CLz/F” value was found to be 0.066 L/h/kg in data set [1] (intravenous injection, 1 mg/kg) and 0.468 L/h/kg in data set [2].
